Assay results from patent US9956243B2, “Combination treatment for acute myeloid leukemia (AML)” (Hoffmann-La Roche Inc., priority 2013, dated 2018).

Legend:
[1] = system: MOLM-13-luc.c4 (AML) human AML cells; assay: Antitumor efficacy and survival / increase in life span (ILS) in disseminated MOLM-13.luc.c4 AML model; format: in vivo, SCID beige mice; conditions: for tumor burden by BLI photon counts: 5 million cells, treatment from day 3, vs Vehicle-treated control mice (FIG. 1); for Median survival: vehicle control 20.5 days
Description: (§1) Female SCID beige mice (10/group), obtained from Charles River Laboratories (Wilmington, Del.) were used when they were approximately 8-12 weeks old and weighed approximately 20-25 grams. The health of the mice was assessed daily by gross observation and analyses of blood samples taken from sentinel animals housed on shared shelf racks. All animals were allowed to acclimate and recover from any shipping-related stress for a minimum of 72 hours prior to experimental use. Autoclaved water and irradiated food (5058-ms Pico Lab mouse chow, Purina Mills, Richmond, Ind.) were provided ad libitum, and the animals were maintained on a 12 hour light and dark cycle. Cages, bedding and water bottles were autoclaved before use and changed weekly. All animal experiments were conducted in accordance with the Guide for the Care and Use of Laboratory Animals, local regulations, and protocols approved by the Roche Animal Care and Use Committee in an AAALAC accredited facility.
Parental MOLM-13 human AML cells were stably transfected with Luc2 lentiviral particles for 24 hrs in the presence of Polybrene (8 ug/ml) and then selected in the presence of Blasticidin for 3 weeks. Subsequently, one clone was selected by single cell plating in the presence of 0.1 mg/mL G418 and was designated MOLM-13.luc.c4. The lentiviral Luc2 expression plasmid was constructed by incorporating Luc2 gene (Promega) in to pLOC lentiviral plasmid backbone (Thermo Fisher Scientific). Luc2 lentiviral particles were prepared by using Trans-Lentiviral Packaging System (Thermo Fisher Scientific) as recommended.
MOLM-13.luc.c4 was maintained with RPMI 1640 with L-glutamine (2 mM) media (GIBCO/Invitrogen, Carlsbad, Calif.) supplemented with 10% heat-inactivated Fetal Bovine Serum (HI-FBS; GIBCO/Invitrogen, Carlsbad, Calif.), and 1% 100 mM sodium pyruvate. Freshly dissociated MOLM13-Luc.c4 cells (1×106 or 5×106) suspended in Phosphate Buffered Saline (PBS) were then intravenously inoculated via the caudal tail vein into female SCID-beige mice.
It was then filtered thru a 0.22 micron filter into a septum sealed vial for intravenous administration. […] Stock cytarabine (Ara-C injection, 100 mg/ml) was diluted in sterile 0.9% sodium chloride to 44 mg/ml according to manufacturer's instructions and dosed at 200 mg/kg iv twice weekly.
Treatment duration was 3 weeks.
(§2) For increased life span (ILS) assessment, animal body weights were measured two to three times per week, and animals were monitored daily for any clinical signs of toxicity or excessive tumor burden (i.e. hind limb paralysis or morbidity). In addition, progression of disease was monitored by in vivo bioluminescent imaging (BLI) using IVIS® Spectrum system. For each BLI session, mice received 100 mg/kg D-luciferin (Caliper Life Sciences/Perkin-Elmer) via ip injections and were imaged at 20 min post luciferin injection at either a 5 s or a 10 s exposure time. Images were captured by the IVIS® Spectrum system and data were collected and analyzed with Living Image 4.2.0 software (Caliper Life Sciences, Hopkinton, Mass.). Total photon fluxes (ph/s) representing luciferase activity within each fixed region of interest (ROI) covering whole tumors of individual mice were determined. The actual images of mice are not disclosed herein.
Quantification of bioluminescence allowed for direct longitudinal comparison of tumor burden between treatment groups prior to surrogate death end points being reached. Tumor burden was graphically represented as the mean BLI photon flux+standard error of the mean (SEM), and median survival was determined utilizing Kaplan Meier survival analysis. Statistical analysis of comparisons between groups was analyzed by two-way ANOVA, and post-hoc Bonferroni test (GraphPad Prism, version 4.3). Differences between groups were considered to be significant when the probability value (p) was ≤0.05.

[2] = Ara-C 200 mg/kg 2x/week iv; 10 mice/group
Description: as §1, with “Cages, bedding and water bottles were autoclaved before use and changed weekly. All animal experiments were conducted in accordance with the Guide for the Care and Use of Laboratory Animals, local regulations, and protocols approved by the Roche Animal Care and Use Committee in an AAALAC accredited facility.” left out
as §2, with “For each BLI session, mice received 100 mg/kg D-luciferin (Caliper Life Sciences/Perkin-Elmer) via ip injections and were imaged at 20 min post luciferin injection at either a 5 s or a 10 s exposure time.” left out, “The actual images of mice are not disclosed herein.” left out

Row | Compound | tumor burden by BLI photon counts [1] | % ILS vs. Vehicle control ([1]; Cpd I-B 437 mg/kg q7d iv, p < 0.05 vs vehicle) | % ILS vs. Vehicle control ([1]; Cpd I-B 437 mg/kg q7d iv, p < 0.05 vs vehicle, listed as Cpd I-B) | Median survival ([1]; Cpd I-B 437 mg/kg q7d iv) | % ILS vs. Vehicle control ([1]; Ara-C 200 mg/kg 2x/wk iv) | Median survival ([1]; Ara-C 200 mg/kg 2x/wk iv) | monotherapy antitumor activity as assessed by tumor burden (BLI) or ILS [1] | monotherapy antitumor activity as assessed by tumor burden (BLI) or ILS ([1]; listed as Cytarabine (Ara-C)) | Mortality [2]
1 | 4-{[(2R,3S,4R,5S)-3-(3-Chloro-2-fluoro-phenyl)-4-(4-chloro-2-fluoro-phenyl)-4-cyano-5-(2,2-dimethyl-propyl)-pyrrolidine-2-carbonyl]amino}-3-methoxy-benzoic acid 1-mPEG-carbonyloxy-ethyl ester (mPEG, average MW, ˜2200) [compound I-B] | significantly reduced photon counts | 37% | *37% | 28 days | – | – | – | – | –
2 | Nc1ccn([C@@H]2O[C@H](CO)[C@@H](O)[C@@H]2O)c(=O)n1 [Ara-C, cytarabine] | no difference | – | – | – | 0% | 20 days | lack of monotherapy activity | lack of antitumor activity | 0
